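Following 48 hours of exposure in 96-well plates, responses at five concentrations were used to interpolate endpoints linearly. TGI marks complete inhibition of growth.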
How the values were obtained:
Test in all cases: DTP human tumour cell line panel, 48 h
MALME-3M melanoma = tested on: MALME-3M melanoma
HOP-18 NSCLC = tested on: HOP-18 NSCLC
IGROV1 ovarian = tested on: IGROV1 ovarian
DMS 114 small cell lung = tested on: DMS 114 small cell lung
LOX IMVI melanoma = tested on: LOX IMVI melanoma
KM20L2 colon = tested on: KM20L2 colon
A549 NSCLC = tested on: A549 NSCLC
ACHN renal = tested on: ACHN renal
HT29 colon = tested on: HT29 colon
CCRF-CEM leukemia = tested on: CCRF-CEM leukemia
TK-10 renal = tested on: TK-10 renal
HCT-15 colon = tested on: HCT-15 colon
HOP-62 NSCLC = tested on: HOP-62 NSCLC
SK-MEL-5 melanoma = tested on: SK-MEL-5 melanoma
SF-295 CNS = tested on: SF-295 CNS
SN12C renal = tested on: SN12C renal
M19-MEL melanoma = tested on: M19-MEL melanoma
EKVX NSCLC = tested on: EKVX NSCLC
NCI-H23 lung = tested on: NCI-H23 lung
SNB-78 CNS = tested on: SNB-78 CNS
786-0 renal = tested on: 786-0 renal
M14 melanoma = tested on: M14 melanoma
RXF-631 renal = tested on: RXF-631 renal
SNB-75 CNS = tested on: SNB-75 CNS
LXFL 529 NSCLC = tested on: LXFL 529 NSCLC
UACC-62 melanoma = tested on: UACC-62 melanoma
UACC-257 melanoma = tested on: UACC-257 melanoma
CAKI-1 renal = tested on: CAKI-1 renal
SW-620 colon = tested on: SW-620 colon
DLD-1 colon = tested on: DLD-1 colon
OVCAR-8 ovarian = tested on: OVCAR-8 ovarian
RPMI-8226 leukemia = tested on: RPMI-8226 leukemia
MOLT-4 leukemia = tested on: MOLT-4 leukemia
SF-268 CNS = tested on: SF-268 CNS
SK-OV-3 ovarian = tested on: SK-OV-3 ovarian
KM12 colon = tested on: KM12 colon
NCI-H522 lung = tested on: NCI-H522 lung
HCT-116 colon = tested on: HCT-116 colon
SK-MEL-2 melanoma = tested on: SK-MEL-2 melanoma
K-562 leukemia = tested on: K-562 leukemia
HL-60(TB) leukemia = tested on: HL-60(TB) leukemia
COLO 205 colon = tested on: COLO 205 colon
OVCAR-3 ovarian = tested on: OVCAR-3 ovarian
OVCAR-4 ovarian = tested on: OVCAR-4 ovarian
A498 renal = tested on: A498 renal
SK-MEL-28 melanoma = tested on: SK-MEL-28 melanoma
DMS 273 small cell lung = tested on: DMS 273 small cell lung
NCI-H226 lung = tested on: NCI-H226 lung
HOP-92 NSCLC = tested on: HOP-92 NSCLC
SR leukemia = tested on: SR leukemia
SNB-19 CNS = tested on: SNB-19 CNS
U251 CNS = tested on: U251 CNS
XF 498 CNS = tested on: XF 498 CNS
RXF 393 renal = tested on: RXF 393 renal
SF-539 CNS = tested on: SF-539 CNS
HCC-2998 colon = tested on: HCC-2998 colon
NCI-H460 lung = tested on: NCI-H460 lung
UO-31 renal = tested on: UO-31 renal
OVCAR-5 ovarian = tested on: OVCAR-5 ovarian

## O=C1C(Br)=CC2(C=C1Br)CCNC1=C2C(=O)c2ccccc2C1=O
MALME-3M melanoma
  TGI: 33.8 µM
HOP-18 NSCLC
  TGI: > 100 µM
IGROV1 ovarian
  TGI: 83.6 µM
DMS 114 small cell lung
  TGI: 22.8 µM
LOX IMVI melanoma
  TGI: 17.2 µM
KM20L2 colon
  TGI: 91.8 µM
A549 NSCLC
  TGI: > 100 µM
ACHN renal
  TGI: 27.9 µM
HT29 colon
  TGI: > 100 µM
CCRF-CEM leukemia
  TGI: 19 µM
TK-10 renal
  TGI: 83.4 µM
HCT-15 colon
  TGI: 30.3 µM
HOP-62 NSCLC
  TGI: 30.7 µM
SK-MEL-5 melanoma
  TGI: 28.5 µM
SF-295 CNS
  TGI: 33.2 µM
SN12C renal
  TGI: 19.6 µM
M19-MEL melanoma
  TGI: 18.4 µM
EKVX NSCLC
  TGI: 99.1 µM
NCI-H23 lung
  TGI: 33.7 µM
SNB-78 CNS
  TGI: > 100 µM
786-0 renal
  TGI: 29.5 µM
M14 melanoma
  TGI: 69.3 µM
RXF-631 renal
  TGI: 26.6 µM
SNB-75 CNS
  TGI: > 100 µM
LXFL 529 NSCLC
  TGI: 35.1 µM
UACC-62 melanoma
  TGI: 29.6 µM
UACC-257 melanoma
  TGI: 53.3 µM
CAKI-1 renal
  TGI: 72.4 µM
SW-620 colon
  TGI: 87.8 µM
DLD-1 colon
  TGI: 28.4 µM
OVCAR-8 ovarian
  TGI: 98 µM
RPMI-8226 leukemia
  TGI: 41 µM
MOLT-4 leukemia
  TGI: 22.7 µM
SF-268 CNS
  TGI: 63.3 µM
SK-OV-3 ovarian
  TGI: > 100 µM
KM12 colon
  TGI: 23.4 µM
NCI-H522 lung
  TGI: 14.4 µM
HCT-116 colon
  TGI: 17.6 µM
SK-MEL-2 melanoma
  TGI: 34.7 µM
K-562 leukemia
  TGI: 48.4 µM
HL-60(TB) leukemia
  TGI: 13.3 µM
COLO 205 colon
  TGI: 15.9 µM
OVCAR-3 ovarian
  TGI: > 100 µM

## O=c1/c(=C/c2ccccc2F)sc2nc3ccccc3n12
MALME-3M melanoma
  TGI: > 100 µM
IGROV1 ovarian
  TGI: > 100 µM
DMS 114 small cell lung
  TGI: > 100 µM
LOX IMVI melanoma
  TGI: > 100 µM
KM20L2 colon
  TGI: > 100 µM
A549 NSCLC
  TGI: > 100 µM
ACHN renal
  TGI: > 100 µM
HT29 colon
  TGI: > 100 µM
OVCAR-4 ovarian
  TGI: > 100 µM
CCRF-CEM leukemia
  TGI: > 100 µM
TK-10 renal
  TGI: > 100 µM
A498 renal
  TGI: > 100 µM
SK-MEL-28 melanoma
  TGI: > 100 µM
HCT-15 colon
  TGI: > 100 µM
DMS 273 small cell lung
  TGI: > 100 µM
NCI-H226 lung
  TGI: > 100 µM
SK-MEL-5 melanoma
  TGI: > 100 µM
SF-295 CNS
  TGI: > 100 µM
SN12C renal
  TGI: > 100 µM
HOP-92 NSCLC
  TGI: > 100 µM
SR leukemia
  TGI: > 100 µM
M19-MEL melanoma
  TGI: > 100 µM
SNB-19 CNS
  TGI: > 100 µM
EKVX NSCLC
  TGI: > 100 µM
U251 CNS
  TGI: > 100 µM
NCI-H23 lung
  TGI: > 100 µM
SNB-78 CNS
  TGI: > 100 µM
786-0 renal
  TGI: > 100 µM
M14 melanoma
  TGI: > 100 µM
RXF-631 renal
  TGI: > 100 µM
XF 498 CNS
  TGI: > 100 µM
SNB-75 CNS
  TGI: > 100 µM
LXFL 529 NSCLC
  TGI: > 100 µM
UACC-62 melanoma
  TGI: > 100 µM
UACC-257 melanoma
  TGI: > 100 µM
CAKI-1 renal
  TGI: > 100 µM
SW-620 colon
  TGI: > 100 µM
DLD-1 colon
  TGI: > 100 µM
OVCAR-8 ovarian
  TGI: > 100 µM
RXF 393 renal
  TGI: > 100 µM
SF-539 CNS
  TGI: > 100 µM
RPMI-8226 leukemia
  TGI: > 100 µM
HCC-2998 colon
  TGI: > 100 µM
MOLT-4 leukemia
  TGI: > 100 µM
SF-268 CNS
  TGI: > 100 µM
NCI-H460 lung
  TGI: > 100 µM
UO-31 renal
  TGI: > 100 µM
NCI-H522 lung
  TGI: > 100 µM
HCT-116 colon
  TGI: > 100 µM
SK-MEL-2 melanoma
  TGI: > 100 µM
OVCAR-5 ovarian
  TGI: > 100 µM
K-562 leukemia
  TGI: > 100 µM
HL-60(TB) leukemia
  TGI: > 100 µM
OVCAR-3 ovarian
  TGI: > 100 µM

Source: PubChem BioAssay (NCI)
